# Results taken from patent US20040185457A1, “Method for detecting dna polymerisation” (priority 2001, published 2004).
# Assays:
# Format in all cases: biochemical
# [1] = biological target: T1, Photinus pyralis luciferase (Photinus pyralis, UniProt P08659); assay: Bioluminescence of nucleotides with firefly luciferase in pyrophosphate assay buffer (ELIDA reagent); settings: for wavelength of maximal light emission: pH 7.8
# T1 construct: purchased Promega
# Protocol: Pyrophosphate assay buffer (PAB) was made up as follows:
# 50 μl of PAB was aliquoted into two wells of a 96 well plate. To one sample was added 1 μl of 0.1 mM sodium pyrophosphate; to the other was added 1 μl of 2 mM dATP. The resulting light emission was observed using a Syngene light-box with a black and white CCD camera integrating the signal over 5 seconds. […] The amount of dATP added is equivalent to ⅕ the amount used in a standard 50 μl PCR reaction.
# A green filter was placed in front of the lens of the CCD camera and the sample above was observed once more.
# luciferase [2] = biological target: T2, luciferase (Photinus pyralis, UniProt P08659); assay: Signal:background ratio in ELIDA assays of PCR reactions; settings: unreacted PCR mix vs 30 cycles, compared to dATP
# T2 sequence (P08659 whole entry): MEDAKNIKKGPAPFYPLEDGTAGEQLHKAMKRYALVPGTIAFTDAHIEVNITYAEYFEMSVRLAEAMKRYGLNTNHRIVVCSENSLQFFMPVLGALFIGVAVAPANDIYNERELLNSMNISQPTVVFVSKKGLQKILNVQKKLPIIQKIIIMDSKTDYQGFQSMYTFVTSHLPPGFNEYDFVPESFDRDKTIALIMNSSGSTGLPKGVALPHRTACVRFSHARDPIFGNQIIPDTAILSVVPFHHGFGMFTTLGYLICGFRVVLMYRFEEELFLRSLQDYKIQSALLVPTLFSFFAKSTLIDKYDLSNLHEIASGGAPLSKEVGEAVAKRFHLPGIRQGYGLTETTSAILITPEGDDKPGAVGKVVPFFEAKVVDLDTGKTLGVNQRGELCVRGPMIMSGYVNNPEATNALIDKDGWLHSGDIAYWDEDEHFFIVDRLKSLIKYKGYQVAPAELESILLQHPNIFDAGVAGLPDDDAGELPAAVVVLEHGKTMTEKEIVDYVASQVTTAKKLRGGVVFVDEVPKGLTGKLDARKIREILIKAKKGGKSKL
# Protocol: PCR reactions were set up as in Example 2 except that only 0.5 pg of the test plasmid pPw601 a was used. Further, the PCR reactions contained either d-α-SATP or dATP. The light emission from an ELIDA assay of unreacted PCR mixes containing either d-α-SATP or dATP was measured as in Example 6. A further ELIDA assay was performed on the same samples after they had completed 30 cycles of a PCR reaction (and had produced the same amount of amplicon as judged by agarose gel analysis). The ratio of the light emission from the unreacted PCR mix to the reacted PCR mix is shown in FIG. 3 (showing signal:background ratio).
# Taq polymerase = biological target: T3, Taq polymerase (Thermus aquaticus, UniProt P19821); assay: PCR using the dATP analogue, product seen by agarose gel electrophoresis
# T3 construct: purchased Roche
# T3 sequence (P19821 whole entry): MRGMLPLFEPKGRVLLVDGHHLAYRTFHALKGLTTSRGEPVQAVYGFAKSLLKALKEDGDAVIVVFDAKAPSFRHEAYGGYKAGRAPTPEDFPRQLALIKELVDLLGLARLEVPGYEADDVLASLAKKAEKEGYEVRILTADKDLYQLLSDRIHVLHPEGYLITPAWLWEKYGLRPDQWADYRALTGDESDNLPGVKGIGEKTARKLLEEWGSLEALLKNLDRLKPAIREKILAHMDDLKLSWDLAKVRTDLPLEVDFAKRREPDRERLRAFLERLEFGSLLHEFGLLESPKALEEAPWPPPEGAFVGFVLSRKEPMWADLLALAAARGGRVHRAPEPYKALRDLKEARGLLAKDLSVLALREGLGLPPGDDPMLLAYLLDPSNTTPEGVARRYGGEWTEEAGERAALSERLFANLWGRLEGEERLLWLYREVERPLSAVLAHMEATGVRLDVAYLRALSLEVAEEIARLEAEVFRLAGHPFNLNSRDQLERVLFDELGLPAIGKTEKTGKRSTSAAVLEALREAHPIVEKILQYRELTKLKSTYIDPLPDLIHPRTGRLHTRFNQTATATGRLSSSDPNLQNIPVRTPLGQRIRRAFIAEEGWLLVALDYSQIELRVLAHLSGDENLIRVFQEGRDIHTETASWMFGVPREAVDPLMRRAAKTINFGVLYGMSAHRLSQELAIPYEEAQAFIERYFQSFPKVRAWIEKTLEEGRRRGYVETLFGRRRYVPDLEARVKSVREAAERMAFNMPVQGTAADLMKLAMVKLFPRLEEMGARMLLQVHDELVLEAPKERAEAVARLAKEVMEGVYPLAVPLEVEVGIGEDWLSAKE
# Protocol: A 50 μl PCR reaction contained the following:
# The sequences of primers 1 and 2 and the test plasmid are given in SEQ ID Nos. 1, 2 and 3, respectively. The size of the expected PCR product was 158 bp.
# Taq polymerase was added to the sample after heating to 95° for 30 seconds. The following cycling parameters were implemented on a Perkin-Elmer GeneAmp PCR system 2400.
# 10 μl of the resulting PCR reaction was loaded onto a […] containing ethidium bromide alongside a molecular weight marker. The gel was run at 60V for 50 minutes and then visualised under a transilluminator.
# luciferase [3] = biological target: T2, luciferase; assay: Stability of light emission from ELIDA assays of PCR reactions; settings: four consecutive readings over 1 minute; for light emission over time: 5 and 35 cycle PCR samples
# Protocol: PCR reactions were set up and run as in Example 5. The analysis of each PCR sample was initiated by mixing 1 μl of the PCR reaction with 20 μl of ELIDA assay buffer. The light emitted from the sample was then measured with a Labsystems Luminoscan Ascent luminometer in a series of four consecutive light readings over a period of 1 minute. Each light reading represented the light emission from the sample integrated over a ten-second interval (using the machine's default PMT voltage).
# This effect becomes greater with the number of PCR cycles. […] As a result, the magnitude of the differential between the readings for 5 and 35 cycles over the four readings taken, is almost constant (only 5% difference).
# T1 sequence (P08659 whole entry): as the sequence (P08659 whole entry) above
structure (smiles),measurement,setting,value
Nc1ncnc2c1ncn2[C@@H]1O[C@H](COP(=O)(O)OP(=O)(O)OP(=O)(O)O)[C@@H](O)[C@H]1O [ATP],wavelength of maximal light emission,[1],550 nm
Nc1ncnc2c1ncn2[C@H]1C[C@H](O)[C@@H](COP(O)(=S)OP(=O)(O)OP(=O)(O)O)O1 (stereo partly drawn) [d-α-SATP],substrate quality for luciferase relative to dATP,[1]; direct reaction with luciferase,approximately one-hundred-fold poorer substrate for luciferase than dATP
same,signal:background ratio,luciferase [2],considerably improves the signal:background ratio
same,PCR product generated (gel),"Taq polymerase; used instead of dATP, 30 cycles",a PCR product is generated
same,difference in the differential between the readings for 5 and 35 cycles over the four readings,luciferase [3],5%
same,light emission over time,luciferase [3],close to constant
Nc1ncnc2c1ncn2[C@H]1C[C@H](O)[C@@H](COP(=O)(O)OP(=O)(O)OP(=O)(O)O)O1 [dATP],light emission on addition to pyrophosphate assay buffer,"[1]; 1 μl of 2 mM in 50 μl PAB, CCD camera, 5 seconds",significant light emission
same,wavelength of maximal light emission,[1],620 nm
same,PCR product generated (gel),Taq polymerase; 1/10th the usual concentration of 0.2 mM,no PCR product is detected
same,light emission over time,luciferase [3],significant decay in light emission over time
